The test system of one data set is Hybridoma FT7.9 (MHC-I). Briefly: IL-2 release by hybridoma FT7.9 cocultured with NOD pancreatic islets. The format is cell-based, NOD mice. The method, then: (§1) Ritonavir (0.6 mg per 10 g of body weight per day) or a placebo (phosphate buffer PBS) was administered by the intraperitoneal route to NOD mice. The pancreatic islets were removed and cultured for 24 hours in the presence or in the absence of 2.5 μg/ml of ritonavir. The cells were then cocultured with MHC-1-restricted hybridomas (FT6.9 and FT7.9 for 24 hours). The quantity of IL-2 was assayed in the supernatant. The following tables present the quantities of IL-2 measured by a test of proliferation (cpm×10^−3).

Data set [1] concerns M113 cells presenting the MART-1 antigen. Kind of data set: Proliferation of M77-84 T lymphocytes stimulated by treated M113 cells.
Another data set relates to Hybridoma ETG.9 (MHC-I). Briefly: IL-2 release by hybridoma FT6.9 cocultured with NOD pancreatic islets. The format is cell-based, NOD mice. The method, then:
as §1

The next data set concerns Hybridoma (MHC-I). Described as above. The format is cell-based, NOD mice. The method, then:
as §1

A short description of data set [2]: Experimental allergic encephalitis in rats. It counts as in vivo, Lewis rats. Also noted: key to clinical score of EAE: 1: weakness of the movements of the tail; 2: incomplete paralysis of the hindquarters; 3: complete paralysis of the hindquarters; 4: incomplete paralysis of the forequarters; 5: total immobility. The procedure: Experimental allergic encephalitis in rats is the only model of multiple sclerosis in humans. The guinea pig MBP (Myelin Basic Protein) is administered to 7-week old female Lewis rats by a subcutaneous injection, into the footpad, of 50 μg of MBP in 100 μl of complete Freund's adjuvant supplemented with 4 μg/ml of mycobacteria. There are administered, in addition, to these rats, daily, either 1 mg, 5 mg or 10 mg of ritonavir, per animal, or a placebo (phosphate buffer) of MBP injection until the animals not treated with ritonavir are killed. The clinical scores measuring the progression of the experimental allergic […] following: 1: weakness of the movements of the tail; 2: incomplete paralysis of the hindquarters; 3: complete paralysis of the hindquarters; 4: incomplete paralysis of the forequarters; and 5: total immobility. About eight days after this immunization with MBP, the control rats started to show the first stages of paralysis (temporary) due to the immune response caused by the administration of myelin.

A further data set relates to class I molecules. Kind of data set: Maturation and surface expression of class I molecules. The format is cell-based.
Where [3] appears, read: in vivo PBS, in vitro ritonavir 2.5 μg/ml.
[4] abbreviates: in vivo ritonavir, in vitro PBS.
Setting [5] is: in vivo ritonavir, in vitro ritonavir.

On to `CC(C)c1nc(CN(C)C(=O)N[C@H](C(=O)N[C@@H](Cc2ccccc2)C[C@H](O)[C@H](Cc2ccccc2)NC(=O)OCc2cncs2)C(C)C)cs1` [ritonavir], for which the “percentage in brackets (reduction of IL-2 versus PBS/PBS)” value is 53% in the data set with Hybridoma FT7.9 (MHC-I) (setting [3]); 24% in the data set on Hybridoma FT7.9 (MHC-I) (setting [4]); 20% with Hybridoma FT7.9 (MHC-I) (setting [5]); 37% in the data set on Hybridoma (MHC-I) (setting [3]); 47% with Hybridoma (MHC-I) (setting [4]); 31% in the data set with Hybridoma (MHC-I) (setting [5]). Further, the “quantity of IL-2 measured by a test of proliferation” value is given as 43 cpm×10^−3 in the data set on Hybridoma FT7.9 (MHC-I) (setting [3]); 70 cpm×10^−3 in the data set with Hybridoma FT7.9 (MHC-I) (setting [4]); 74 cpm×10^−3 in the data set on Hybridoma FT7.9 (MHC-I) (setting [5]); 40 cpm×10^−3 with Hybridoma ETG.9 (MHC-I) (setting [3]); 34 cpm×10^−3 in the data set with Hybridoma ETG.9 (MHC-I) (setting [4]); 44 cpm×10^−3 in the data set on Hybridoma ETG.9 (MHC-I) (setting [5]). Moreover, the “presentation of MART-1 antigen: proliferation of M77-84 T lymphocytes” value in data set [1] (M113 cells cultured 24 hours with 0.1-5 μg/ml, proliferation after 48 hours) was “inhibition”. Moreover, the inhibition of proliferation result in data set [1] (antigen presenting cells cultured in sera of HIV-negative volunteers obtained 3 hours after a single oral dose of 500 mg) was “Up to 70%”. Moreover, in the data set on Hybridoma ETG.9 (MHC-I) (cells isolated from NOD mice treated with ritonavir, statement covers both hybridomas), the “recognition ex vivo of Langerhan's cells by cytotoxic T clones” value is listed as “no longer recognized”. Also, the “clinical score of EAE” value in data set [2] (other rats treated with 10 mg per animal daily) was determined as 1. In data set [2] (rats treated with 10 mg per animal daily), the “development of the disease (EAE)” value was “two did not develop the disease”. Also, the “appearance of the first signs of paralysis” value in data set [2] (rats treated with 1 and 5 mg per animal daily) was “delayed”. For the same compound, the “expression at the surface of the class I molecules” value with class I molecules is “not significantly blocked”. For the same compound, in the data set with class I molecules, the “maturation of the class I molecules in the endoplasmic reticulum (resistance to endoglycosidase-H)” value is “not significantly blocked”.

For the origin of these results see patent US6506555B1, “Use of HIV protease inhibiting compounds” (Institut National de la Sante et de la Recherche Medicale …, priority 1998, dated 2003).
